By EC90 is commonly meant the concentration at which the effect reaches the 90% level.

Read-outs that look alike come from different tables or passages of the source.

The subject of test [1] is HCV replicon 1a. Nature of the test: Cell-based HCV replicon assay (TaqMan), genotype 1a replicon. The note with it: HCV 1a replicon cells, replicon RNA by TaqMan on day 3, EC90 = concentration for ΔCT=3.2 over baseline. The method, then: (§1) Measurement of inhibition by compounds of the present invention was performed using the HCV replicon system. Several different replicons encoding different HCV genotypes or mutations were used. In addition, potency measurements were made using different formats of the replicon assay, including different ways of measurements and different plating formats. See Jan M. Vrolijk et al., A replicons-based bioassay for the measurement of interferons in patients with chronic hepatitis C, 110 J. VIROLOGICAL METHODS 201 (2003); Steven S. Carroll et al., Inhibition of Hepatitis C Virus RNA Replication by 2′-Modified Nucleoside Analogs, 278(14) J. BIOLOGICAL CHEMISTRY 11979 (2003). However, the underlying principles are common to all of these determinations, and are outlined below.
(§2) Compounds of the present invention were assayed for cell-based anti-HCV activity using the following protocol. Replicon cells were seeded at 5000 cells/well in 96-well collagen I-coated Nunc plates in the presence of the test compound. Various concentrations of test compound, typically in 10 serial 2-fold dilutions, were added to the assay mixture, with the starting concentration ranging from 250 μM to 1 μM. The final concentration of DMSO was 0.5%, fetal bovine serum was 5%, in the assay media. Cells were harvested on day 3 by the addition of 1× cell lysis buffer (Ambion cat #8721). The replicon RNA level was measured using real time PCR (TaqMan® assay). The amplicon was located in 5B. The PCR primers were: 5B.2F, ATGGACAGGCGCCCTGA (SEQ. ID NO. 1); 5B.2R, […] (SEQ. ID NO. 2); the probe sequence was FAM-labeled CACGCCATGCGCTGCGG (SEQ. ID NO. 3). GAPDH RNA was used as endogenous control and was amplified in the same reaction as NS5B (multiplex PCR) using primers and VIC-labeled probe recommended by the manufacturer (PE Applied Biosystem). The real-time […] reactions were run on ABI PRISM 7900HT Sequence Detection System using the following program: 48° C. for 30 minutes, 95° C. for 10 minutes, 40 cycles of 95° C. for 15 sec, 60° C. for 1 minute. The ACT values (CT5B-CTGAPDH) were plotted against the concentration of test compound and fitted to the sigmoid dose-response model using XLfit4 (MDL). EC50 was defined as the concentration of inhibitor necessary to achieve ΔCT=1 over the projected baseline; EC90 the concentration necessary to achieve ΔCT=3.2 over the baseline. Alternatively, to quantitate the absolute amount of replicon RNA, a standard curve was established by including serially diluted T7 transcripts of replicon RNA in the Taqman assay. All TaqMan® reagents were from PE Applied Biosystems. Such an assay procedure was described in detail in e.g. Malcolm et al., Antimicrobial Agents and Chemotherapy 50: 1013-1020 (2006).
(§3) HCV replicon EC50 assay data for various replicons and mutants was calculated for selected compounds of the present invention using this method and is provided in the tables above herein.

The test system of test [2] is HCV replicon 1b. Nature of the test: Cell-based HCV replicon assay (TaqMan), genotype 1b replicon. The note with it: HCV 1b replicon cells, replicon RNA by TaqMan on day 3, EC90 = concentration for ΔCT=3.2 over baseline. The method, then: as §1, §2, §3
For test [3], the system named is HCV replicon 1a Y93H. Nature of the test: Cell-based HCV replicon assay (TaqMan), genotype 1a Y93H mutant replicon. To be noted: EC90 = concentration for ΔCT=3.2 over baseline. The method, then:
as §1, §2, §3
Background: Replicon systems follow genome replication, usually without infectious particles.

Test [4] deals with HCV replicon 2b. Nature of the test: Cell-based HCV replicon assay (TaqMan), genotype 2b replicon. To be noted: EC90 = concentration for ΔCT=3.2 over baseline. The method, then:
as §1, §2, §3

Where [5] appears, read: Hepatitis C virus, 72 h, read-out: 1a Y93H EC90, HCV 1a Y93H mutant replicon cells, replicon RNA by TaqMan on day 3.
[6] abbreviates: Hepatitis C virus, 72 h, read-out: 2b EC90, HCV 2b replicon cells, replicon RNA by TaqMan on day 3.

Turning to `COC(=O)N[C@H](Cc1c[nH]c2ccccc12)C(=O)N1CCC[C@H]1c1ncc(-c2ccc(-c3ccc(-c4cnc([C@@H]5C[Si](C)(C)CN5C(=O)[C@@H](Cc5c[nH]c6ccccc56)NC(=O)OC)[nH]4)cc3)cc2)[nH]1` [Compound 16], the 90% effect concentration (EC90) in test [1] (Hepatitis C virus, 72 h) came out at 1000 nM; in test [2] (Hepatitis C virus, 72 h), 1000 nM; in test [3] (setting [5]), 500 nM; in test [4] (setting [6]), 1000 nM.

`COC(=O)N[C@@H](Cc1c[nH]c2ccccc12)C(=O)N1CCC[C@H]1c1ncc(-c2ccc(-c3ccc(-c4cnc([C@@H]5C[Si](C)(C)CN5C(=O)[C@H](Cc5c[nH]c6ccccc56)NC(=O)OC)[nH]4)cc3)cc2)[nH]1` [Compound 17]: the concentration for an effect of 90% (EC90) in test [1] (Hepatitis C virus, 72 h) was 9.36 nM; in test [2] (Hepatitis C virus, 72 h), 1000 nM; in test [3] (setting [5]) it was 1000 nM; in test [4] (setting [6]) it was 1000 nM.

For `COC(=O)N[C@@H](C)C(=O)N1CCC[C@@H]1c1ncc(-c2ccc(-c3ccc(-c4cnc([C@H]5C[Si](C)(C)CN5C(=O)[C@H](C)NC(=O)OC)[nH]4)cc3)cc2)[nH]1` [Compound 18], the 90% effect concentration (EC90) in test [1] (Hepatitis C virus, 72 h) was 988 nM; in test [2] (Hepatitis C virus, 72 h) it was 1000 nM; in test [3] (setting [5]) it was 1000 nM; in test [4] (setting [6]), 1000 nM.

Regarding `COC(=O)N[C@H](C(=O)N1CCC[C@@H]1c1ncc(-c2ccc(-c3ccc(-c4cnc([C@H]5C[Si](C)(C)CN5C(=O)[C@@H](NC(=O)OC)c5ccccc5)[nH]4)cc3)cc2)[nH]1)c1ccccc1` [Compound 19], the EC90 in test [1] (Hepatitis C virus, 72 h) came to 25.5 nM; in test [2] (Hepatitis C virus, 72 h), 11 nM; in test [3] (setting [5]) it was 1000 nM; in test [4] (setting [6]), 999 nM.

With `COC(=O)NC1(C(=O)N2CCC[C@@H]2c2ncc(-c3ccc(-c4ccc(-c5cnc([C@H]6C[Si](C)(C)CN6C(=O)C6(NC(=O)OC)CC6)[nH]5)cc4)cc3)[nH]2)CC1` [Compound 20], the EC90 in test [1] (Hepatitis C virus, 72 h) stood at 1000 nM; in test [2] (Hepatitis C virus, 72 h), 1000 nM; in test [3] (setting [5]), 1000 nM; in test [4] (setting [6]), 1000 nM.

Turning to `COC(=O)N[C@@H](C(=O)N1CCC[C@@H]1c1ncc(-c2ccc(-c3ccc(-c4cnc([C@H]5C[Si](C)(C)CN5C(=O)[C@H](NC(=O)OC)C5CCCOCC5)[nH]4)cc3)cc2)[nH]1)C1CCCOCC1` (stereo partly drawn) [Compound 21], the EC90 in test [1] (Hepatitis C virus, 72 h) was 4.42 nM; in test [2] (Hepatitis C virus, 72 h), 18.7 nM; in test [3] (setting [5]), 1000 nM; in test [4] (setting [6]) it was 204 nM.

As for `COC(=O)N[C@H](C(=O)N1CCC[C@@H]1c1ncc(-c2ccc(-c3ccc(-c4cnc([C@H]5C[Si](C)(C)CN5C(=O)[C@@H](NC(=O)OC)C5CC5)[nH]4)cc3)cc2)[nH]1)C1CC1` [Compound 22], the EC90 in test [1] (Hepatitis C virus, 72 h) came to 1000 nM; in test [2] (Hepatitis C virus, 72 h), 1000 nM; in test [3] (setting [5]), 1000 nM; in test [4] (setting [6]), 1000 nM.

As for `COC(=O)N[C@H](C(=O)N1CCC[C@H]1c1ncc(-c2ccc(-c3ccc(-c4cnc([C@@H]5C[Si](C)(C)CN5C(=O)[C@@H](NC(=O)OC)C5CCCC5)[nH]4)cc3)cc2)[nH]1)C1CCCC1` [Compound 24], the EC90 was found to be 2.91 nM in test [1] (Hepatitis C virus, 72 h); 17.3 nM in test [2] (Hepatitis C virus, 72 h); 1000 nM in test [3] (setting [5]); 382 nM in test [4] (setting [6]).

On to `COC(=O)N[C@H](C(=O)N1CCC[C@H]1c1ncc(-c2ccc(-c3ccc(-c4cnc([C@@H]5C[Si](C)(C)CN5C(=O)[C@@H](NC(=O)OC)[C@@H](C)OC)[nH]4)cc3)cc2)[nH]1)[C@@H](C)OC` [Compound 25], for which the concentration for an effect of 90% (EC90) in test [1] (Hepatitis C virus, 72 h) came out at 0.72 nM; in test [2] (Hepatitis C virus, 72 h), 4.77 nM; in test [3] (setting [5]), 1000 nM; in test [4] (setting [6]) it was 136 nM.

`COC(=O)N[C@@H](Cc1cccc(O)c1)C(=O)N1CCC[C@H]1c1ncc(-c2ccc(-c3ccc(-c4cnc([C@@H]5C[Si](C)(C)CN5C(=O)[C@H](Cc5cccc(O)c5)NC(=O)OC)[nH]4)cc3)cc2)[nH]1` [Compound 26]: the 90% effect concentration (EC90) in test [1] (Hepatitis C virus, 72 h) stood at 11.5 nM; in test [2] (Hepatitis C virus, 72 h), 387 nM; in test [3] (setting [5]) it was 1000 nM; in test [4] (setting [6]) it was 1000 nM.

In the case of `COC(=O)N[C@@H](Cn1ncnn1)C(=O)N1CCC[C@H]1c1ncc(-c2ccc(-c3ccc(-c4cnc([C@@H]5C[Si](C)(C)CN5C(=O)[C@H](Cn5ncnn5)NC(=O)OC)[nH]4)cc3)cc2)[nH]1` [Compound 27], the EC90 in test [1] (Hepatitis C virus, 72 h) worked out at 6.11 nM; in test [2] (Hepatitis C virus, 72 h), 2.17 nM; in test [3] (setting [5]) it was 1000 nM; in test [4] (setting [6]), 138 nM.

`COC(=O)N[C@@H](Cc1cn(C)cn1)C(=O)N1CCC[C@H]1c1ncc(-c2ccc(-c3ccc(-c4cnc([C@@H]5C[Si](C)(C)CN5C(=O)[C@H](Cc5cn(C)cn5)NC(=O)OC)[nH]4)cc3)cc2)[nH]1` [Compound 28]: the EC90 in test [1] (Hepatitis C virus, 72 h) is 11.9 nM; in test [2] (Hepatitis C virus, 72 h), 282 nM; in test [3] (setting [5]) it was 1000 nM; in test [4] (setting [6]) it was 1000 nM.

As for `COC(=O)N[C@@H](Cn1cccn1)C(=O)N1CCC[C@H]1c1ncc(-c2ccc(-c3ccc(-c4cnc([C@@H]5C[Si](C)(C)CN5C(=O)[C@H](Cn5cccn5)NC(=O)OC)[nH]4)cc3)cc2)[nH]1` [Compound 29], the 90% effect concentration (EC90) in test [1] (Hepatitis C virus, 72 h) turned out to be 5.32 nM; in test [2] (Hepatitis C virus, 72 h) it was 139 nM; in test [3] (setting [5]) it was 1000 nM; in test [4] (setting [6]) it was 861 nM.

For the compound `CC[C@H](C)[C@H](NC(=O)OC)C(=O)N1CCC[C@H]1c1ncc(-c2ccc(-c3ccc(-c4cnc([C@@H]5C[Si](C)(C)CN5C(=O)[C@@H](NC(=O)OC)[C@@H](C)CC)[nH]4)cc3)cc2)[nH]1` [Compound 30], the concentration for an effect of 90% (EC90) in test [1] was found to be 1.33 nM; in test [2], 7.63 nM; in test [3] (read-out: 1a Y93H EC90, HCV 1a Y93H mutant replicon cells, replicon RNA by TaqMan on day 3), 610 nM; in test [4] (read-out: 2b EC90, HCV 2b replicon cells, replicon RNA by TaqMan on day 3), 248 nM.

For `COC(=O)N[C@H](C(=O)N1CCC[C@H]1c1ncc(-c2ccc(-c3ccc(-c4cnc([C@@H]5C[Si](C)(C)CN5C(=O)[C@@H](NC(=O)OC)C5CCCCC5)[nH]4)cc3)cc2)[nH]1)C1CCCCC1` [Compound 34], the EC90 in test [1] (Hepatitis C virus, 72 h) is 2.5 nM; in test [2] (Hepatitis C virus, 72 h) it was 0.04 nM; in test [3] (setting [5]) it was > 1000 nM; in test [4] (setting [6]), 648 nM.

With `COC(=O)N[C@H](C(=O)N1CCC[C@H]1c1nc(Cl)c(-c2ccc(-c3ccc(-c4[nH]c([C@@H]5C[Si](C)(C)CN5C(=O)[C@@H](NC(=O)OC)C(C)C)nc4Cl)cc3)cc2)[nH]1)C(C)C` [Compound 41], the EC90 was determined as 0.26 nM in test [1] (Hepatitis C virus, 72 h); 217 nM in test [2] (Hepatitis C virus, 72 h); 189 nM in test [3] (setting [5]); 100 nM in test [4] (setting [6]).

In the case of `COC(=O)N[C@H](C(=O)N1C[Si](C)(C)C[C@H]1c1nc(Cl)c(-c2ccc(-c3ccc(-c4[nH]c([C@@H]5C[C@H]6C[C@H]6N5C(=O)[C@@H](NC(=O)OC)C(C)C)nc4F)cc3)cc2)[nH]1)C(C)C` [Compound 45], the EC90 in test [1] (Hepatitis C virus, 72 h) is 0.13 nM; in test [2] (Hepatitis C virus, 72 h), 0.017 nM; in test [3] (setting [5]) it was 144 nM; in test [4] (setting [6]), 66 nM.

`COC(=O)N[C@@H](C)C(=O)N1C[Si](C)(C)C[C@H]1c1nc(Cl)c(-c2ccc(-c3ccc(-c4[nH]c([C@@H]5C[C@H]6C[C@H]6N5C(=O)[C@H](C)NC(=O)OC)nc4Cl)cc3)cc2)[nH]1` [Compound 52]: the 90% effect concentration (EC90) was 0.021 nM in test [1] (Hepatitis C virus, 72 h); 0.007 nM in test [2] (Hepatitis C virus, 72 h); 9.5 nM in test [3] (setting [5]); 57 nM in test [4] (setting [6]).

Values taken from US20140378416A1, “SILYL-CONTAINING HETEROCYCLIC COMPOUNDS AND METHODS OF USE THEREOF FOR THE TREATMENT OF VIRAL DISEASES” (priority 2011, published 2014).
